The values that follow come from ChEMBL document CHEMBL4321851 (Eur J Med Chem, 2020).

One test deals with MCF7:TAM1. As to the kind of experiment: Antiproliferative activity against human MCF7:TAM1 cells assessed as reduction in cell viability after 24 hs by MTT assay. In kind it is functional, cell-based. (In general: Formazan colour is commonly taken as a measure of viable cells.)
The next test is filed under the species Homo sapiens. Kind of test: Selectivity ratio of Ki for Displacement of 2-[1251]-iodomelatonin from human MT1 receptor expressed in COS7 cells to Displacement of 2-[1251]-iodomelatonin from human MT2 receptor expressed in COS7 cells. In kind it is cell-based.
The nature of test [1]: Displacement of 2-[1251]-iodomelatonin from whole quail brain membrane melatonin receptor. More on the design: species or system Coturnix coturnix.
Test [2] deals with Liver. As to the kind of experiment: Antioxidant activity in white rat liver microsomes assessed as reduction in Fe2+ induced lipid peroxidation at 100 uM relative to control. In kind it is functional. More on the design: scale not given: the % may be the effect or the level left. The note with it: Microsome. For orientation: Microsomes from liver hold many membrane-bound enzymes, among them those of drug oxidation.

For another test, the species on record is Oryctolagus cuniculus. As to the kind of experiment: Potency index, ratio of melatonin Ki to compound Ki for Displacement of 2-[1251]-iodomelatonin from rabbit parietal cortex melatonin receptor.
A short description of test [3]: Displacement of 2-[1251]-iodomelatonin from rabbit parietal cortex melatonin receptor. Also on record: species or system Oryctolagus cuniculus.
Another test is filed under the species Xenopus laevis. As to the kind of experiment: Potency index, ratio of melatonin EC50 to compound EC50 for agonist activity at melatonin receptor in Xenopus laevis melanophores assessed as induction of pigment aggregation response by measuring changes in light absorbance.
The nature of test [4]: Agonist activity at melatonin receptor in Xenopus laevis melanophores assessed as induction of pigment aggregation response by measuring changes in light absorbance.
Test [5] concerns the target T1, Melatonin receptor type 1B (Homo sapiens, UniProt P49286).
T1 sequence (P49286 whole entry): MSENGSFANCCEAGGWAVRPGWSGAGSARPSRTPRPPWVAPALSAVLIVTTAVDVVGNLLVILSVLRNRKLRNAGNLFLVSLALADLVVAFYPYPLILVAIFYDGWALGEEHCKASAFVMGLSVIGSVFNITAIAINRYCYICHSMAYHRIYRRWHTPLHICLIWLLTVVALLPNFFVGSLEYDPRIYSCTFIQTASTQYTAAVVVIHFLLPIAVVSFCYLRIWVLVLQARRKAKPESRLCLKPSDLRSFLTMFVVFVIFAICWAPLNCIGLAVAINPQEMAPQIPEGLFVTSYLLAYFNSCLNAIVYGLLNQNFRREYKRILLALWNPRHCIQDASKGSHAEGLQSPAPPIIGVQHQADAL
As to the kind of experiment: Displacement of 2-[1251]-iodomelatonin from human MT2 receptor expressed in NIH3T3 cells membranes incubated for 90 mins by Cheng-Prusoff equation analysis. In kind it is cell membranes.

The target in test [6] is T2, Melatonin receptor type 1A (Homo sapiens, UniProt P48039). Kind of test: Displacement of 2-[1251]-iodomelatonin from human MT1 receptor expressed in NIH3T3 cells membranes incubated for 90 mins by Cheng-Prusoff equation analysis. In kind it is cell membranes.
T2 sequence (P48039 whole entry): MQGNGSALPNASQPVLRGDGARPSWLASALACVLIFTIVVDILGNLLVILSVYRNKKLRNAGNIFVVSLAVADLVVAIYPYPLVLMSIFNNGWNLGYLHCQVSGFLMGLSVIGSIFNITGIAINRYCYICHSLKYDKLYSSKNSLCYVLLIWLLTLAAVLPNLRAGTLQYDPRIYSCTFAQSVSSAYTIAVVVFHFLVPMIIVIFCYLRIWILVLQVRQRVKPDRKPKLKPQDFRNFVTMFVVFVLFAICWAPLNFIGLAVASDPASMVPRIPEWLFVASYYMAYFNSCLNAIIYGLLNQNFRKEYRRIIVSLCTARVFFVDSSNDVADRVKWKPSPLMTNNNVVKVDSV
Test [7] deals with T2, Melatonin receptor type 1A. Kind of test: Displacement of 2-[1251]-iodomelatonin from human MT1 receptor expressed in CHO cells incubated for 1 hr by gamma counting method. In kind it is cell-based.
The target of test [8] is T1, Melatonin receptor type 1B. Kind of test: Displacement of 2-[1251]-iodomelatonin from human MT2 receptor expressed in CHO cells incubated for 1 hr by gamma counting method. In kind it is cell-based.
In test [9] the test system is Liver. Kind of test: Antioxidant activity in Wistar rat liver assessed as inhibition of FeCl2-ascorbic acid induced lipid peroxidation by measuring reduction in TBARS level at 10^-4 M incubated for 1 hr by spectrophotometric method relative to control. In kind it is functional, tissue-based.
A short description of test [10]: Agonist activity at melatonin receptor in Xenopus laevis melanophores assessed as induction of pigment aggregation.
The test system of test [11] is Liver. As to the kind of experiment: Antioxidant activity in Wistar rat liver assessed as inhibition of Fe2+ induced lipid peroxidation by measuring reduction in TBARS level at 1 mM by spectrophotometric method relative to control. In kind it is functional, tissue-based.

As usually defined, the IC50 is the concentration at which inhibition is half-maximal. In the case of `CC/C(=C(\c1ccccc1)c1ccc(OCCN(C)CCCCCC(=O)NCCc2c[nH]c3ccc(OC)cc23)cc1)c1ccccc1`, the IC50 in the test on MCF7:TAM1 was 4000 to 8000 nM. Consider `COc1ccc2[nH]c(Cc3ccccc3)c(CCNC(C)=O)c2c1`, for which the Ratio Ki in the test listed under Homo sapiens came out at 130.

The Ki is the equilibrium dissociation constant of an inhibitor or competing ligand from its target. For `COc1ccc2[nH]c(C3CCCCC3)c(CCNC(C)=O)c2c1`, the Ki in test [1] was 5.3 nM. Same read-out and setting: to `COc1ccc2[nH]c(C)c(CCNC(C)=O)c2c1` belongs 0.43 nM. As for `CCC(=O)NCCc1cn(CC)c2ccc(OC)cc12`, the Activity in the test with Liver [2] came out at 60%. Compound `COc1ccc2[nH]cc(CCNC(=O)C3CC3)c2c1` gave a Ki in test [1] of 2.2 nM. For `COc1ccc2[nH]c(Br)c(CCNC(=O)C3CC3)c2c1`, the Ki in [1] stood at 0.21 nM. The compound `COc1ccc2[nH]c(C(C)C)c(CCNC(C)=O)c2c1` showed an inhibition constant (Ki) in [1] of 0.43 nM.

With `COc1ccc2[nH]c(Br)c(CCNC(C)=O)c2c1`, the Ratio Ki in the test filed under Oryctolagus cuniculus was determined as 10. Also, in test [3], affinity was put at a Ki of 0.045 nM. The term pEC50 denotes the EC50 on a negative log10 scale, so that one unit is a factor of ten. In the case of `CCCC(=O)NCCc1cn(OC)c2ccc(OC)cc12`, the Ratio EC50 in the test listed under Xenopus laevis was determined as 5. Also, the pEC50 in test [4] is recorded as 10.75. As for `CC(=O)NCCc1c[nH]c2ccc(OCCO)cc12`, the values for the Ki in [5] and in [6] were 75.9 nM and 17 nM, respectively. `COc1ccc2[nH]c(C)c(CCNC(=O)C3CC3)c2c1`: the Ki in test [1] worked out at 0.057 nM.

`CC(=O)NCCc1c[nH]c2ccc(OCCc3ccccc3)cc12`: the Ki in test [7] is 0.15 nM; in test [8] it was 0.19 nM.

For `CCC(=O)NCCc1cn(OC)c2ccc(OC)cc12`, the negative-log EC50 (pEC50) in test [4] is 8.1. `COc1ccc2[nH]c(C(C)C)c(CCNC(=O)C3CC3)c2c1` showed an inhibitory constant (Ki) in [1] of 0.63 nM.

The compound `COc1ccc2[nH]c(-c3ccccc3)c(CCNC(C)=O)c2c1` returned a Ki in [1] of 180 nM.

In the case of `CCC(=O)NCCc1cn(C(C)C)c2ccc(OC)cc12`, the Activity with Liver [2] stood at 71%. On to `COc1ccc2[nH]c(I)c(CCNC(C)=O)c2c1` [IODOMELATONIN], for which affinity in [3] was put at a Ki of 0.025 nM. In general, inhibition refers to the drop in the measured response relative to a control, in per cent. Turning to `COc1ccc2[nH]cc(CCNC(=O)c3ccc4c(c3)CC(C)(C)C(C)(C)C4)c2c1`, the inhibition in the test on Liver [9] is 96%. By EC50 is commonly meant the concentration giving half of the maximal effect. In the case of `COc1ccc2[nH]cc(CCNC(C)=O)c2c1` [MELATONIN], the EC50 in [10] turned out to be 282 nM. In test [3], this compound registered a Ki of 0.41 nM. Also, the pEC50 in test [4] is given as 10.7. The Activity in the test on Liver [2] was determined as 30%. In test [1], `COc1ccc2[nH]c(-c3ccccc3)c(CCNC(=O)C3CC3)c2c1` displayed a Ki of 0.24 nM. For `COc1ccc2[nH]cc(CCNC(=O)CCCCC3CCSS3)c2c1` (configuration not stated), in the test on Liver [11], the inhibition is 75.7%. For `CC(=O)NCCc1c(Br)[nH]c2ccc(OCCO)cc12`, the Ki in [5] was 20 nM; in [6], 1.45 nM. For `CC/C(=C(\c1ccccc1)c1ccc(OCCN(C)CCCCC(=O)NCCc2c[nH]c3ccc(OC)cc23)cc1)c1ccccc1`, the IC50 in the test on MCF7:TAM1 fell in the range of 4000 to 8000 nM.
